Literature values as cited in patent publication US20070297991A1, “NEURAL CONDUIT AGENT DIS[…] SMOKING CESSATION AND OTHER APPLICATIONS” (MINU, L.L.C., priority 2006, published 2007).

Conditions: in vivo

CN1CCCC1c1cccnc1 (stereo not shown) [nicotine]
plasma half-life: approximately two
